We go through one compound from US7410635B2 (priority 2003, dated 2008).

SMILES strings stand for the structures.

The conditions of the series: pH 3.

Take `C=CCC1(CC(C)C)C(=O)NC(=O)NC1=O` [Butalbital, 5-(2-Methylpropyl)-5-(2-propenyl)-2,4,6(1H,3H,5H) -pyrim idinetrione]: the average degradation amounted to 1.2%.
